Counter-ions that a name gives are not always drawn. Like-named read-outs stand apart in the source and are kept apart here.
Assays:
[1] = Determination of bioavailability / pharmacokinetics in rats; format: in vivo; conditions: male, Wistar Ola, plasma, rat, saline; for half-life: read-out: T½ (converted); for Vd: read-out: Vss
From the text: Determination of Bioavailability of Compounds 1A, 2A and 3A in Rats
Male Wistar Ola rats (˜250 g). Food and water were available ad libitum throughout the studies.
For intravenous pharmacokinetic studies, catheters (Portex polythene—ID 0.58 mm, OD 0.96 mm with a tip made from SF Medical silicone tubing, SFM1-1350) were inserted into the right jugular vein under isoflurane anaesthesia. The tubing was exteriorised at the back of the neck, filled with heparinised saline (100 Um/ml) and stoppered. Animals were allowed a minimum of 48 h recovery before dosing.
Compounds 1A, 2A and 3A were administered orally (PO). Compounds 1B, 2B and 3B were administered intravenously (IV). Serial blood samples (for plasma) were taken from a lateral vein at points from 3 min to 24 hrs (terminal sample by cardiac puncture) according to a matrix design protocol (3 samples per time point). Plasma samples were stored at −20° C. until analysis.
Plasma samples were analyzed for the pertinent free acid thrombin derivatives 1B, 2B and 3B using an LC-MS method. Cmax (maximum plasma concentrations) and AUC values were determined from the mean plasma concentration—time profiles.
Noncompartmental pharmacokinetic analysis was performed using WinNonlin Professional 3.1 and 4.1.

human α-thrombin = molecular target: T1, human α-thrombin (Homo sapiens, UniProt P00734); test: Assay of thrombin activity (chromogenic substrate S-2238); format: biochemical; conditions: for IC50: 10 min pre-incubation at 37° C, substrate S-2238; for Ki: Hanes-Woolf analysis, S-2238 concentration varied
T1 construct: human α-thrombin
Protocol: Thrombin inhibitory activity was assessed by pre-incubating the test compound at a variety of concentrations with human α-thrombin at 37° C. After 10 min, the chromogenic substrate H-D-Phe-Pipecolinyl-Arg-ρ-nitroanilide (S-2238) was added to the mixture and the change in absorbance measured over the following 8 min.

[2] = Determination of bioavailability / pharmacokinetics in rats; format: in vivo; conditions: male, Wistar Ola, plasma, rat
[3] = PO 10 mg/kg of the free acid itself, saline
[4] = IV 5 mg/kg, mean of two studies

Structure (SMILES)	AUC ([1]; IV 2 mg/kg) [ng·h/mL]	clearance ([1]; IV 2 mg/kg) [mL/min/kg]	half-life ([1]; IV 2 mg/kg) [min]	Vd ([1]; IV 2 mg/kg) [L/kg]	IC50 (human α-thrombin) [µM]	Ki (human α-thrombin) [µM]	also measured
COc1ccc(C[C@@H](NCC(=O)O)C(=O)N2CCC[C@H]2C(=O)NCc2ccc3c(N)nccc3c2)cc1 [Compound 3B, N-(carboxymethyl)-O-methyl-D-tyrosinyl-N-[(1-amino-6-isoquinolyl)methyl]-L-prolinamide trifluoroacetate]	1010	34	9.6	0.46	0.358	0.0054	
CCCOC(=O)CN[C@H](Cc1ccccc1)C(=O)N1CCC[C@H]1C(=O)NCc1ccc2c(N)nccc2c1 [Compound 2A, N-(2-propoxy-2-oxoethyl)-D-phenylalanyl-N-[(1-amino-6-isoquinolyl)methyl]-L-prolinamide hydrochloride]					0.573	0.0345	
Nc1nccc2cc(CNC(=O)[C@@H]3CCCN3C(=O)[C@@H](Cc3ccccc3)NCC(=O)O)ccc12 [Compound 2B, N-(carboxymethyl)-D-phenylalanyl-N-[(1-amino-6-isoquinolyl)methyl]-L-prolinamide trifluoroacetate]	659	54	36.6	2.4			
CCCOC(=O)CN[C@H](Cc1ccc(OC)cc1)C(=O)N1CCC[C@H]1C(=O)NCc1ccc2c(N)nccc2c1 [Compound 3A, N-(2-propoxy-2-oxoethyl)-O-methyl-D-tyrosinyl-N-[(1-amino-6-isoquinolyl)methyl]-L-prolinamide hydrochloride]					0.197	0.0018	

Further molecules by falling IC50 (human α-thrombin), results first:

AUC ([1]; IV 2 mg/kg) [ng·h/mL]	clearance ([1]; IV 2 mg/kg) [mL/min/kg]	half-life ([1]; IV 2 mg/kg) [min]	Vd ([1]; IV 2 mg/kg) [L/kg]	IC50 (human α-thrombin) [µM]	Ki (human α-thrombin) [µM]	Structure (SMILES)	also measured
				0.013	0.001	CCCOC(=O)CN[C@@H](C(=O)N1CCC[C@H]1C(=O)NCc1ccc2c(N)nccc2c1)C(c1ccccc1)c1ccccc1 [Compound 1A, N-(2-oxo-2-propoxyethyl)-β-phenyl-D-phenylalanyl-N-[(1-amino-6-isoquinolinyl)methyl]-L-prolinamide]	
				0.0126	0.0009	Cl.Nc1nccc2cc(CNC(=O)[C@@H]3CCCN3C(=O)[C@H](NCC(=O)O)C(c3ccccc3)c3ccccc3)ccc12 [Compound 1B, N-(carboxymethyl)-β-phenyl-D-phenylalanyl-N-[(1-amino-6-isoquinolyl)methyl]-L-prolinamide hydrochloride]	bioavailability ([2]; PO 10 mg/kg of the free acid itself vs IV): 1.3%; AUC [2, 3]: 119 ng·h/mL; Cmax [2, 3]: 35 ng/mL; Tmax [2, 3]: 72 min; AUC [1, 4]: 4860 ng·h/mL; clearance [1, 4]: 17 mL/min/kg; half-life [1, 4]: 19.2 min; Vd [1, 4]: 0.48 L/kg

— US8299091B2, “Aminoisoquinoline thrombin inhibitor with improved bioavailability” (MSD Oss B.V., priority 2006, dated 2012)
